Assay results from patent US9040663B2, “Melanocortin receptor-specific peptides” (AstraZeneca AB, priority 2009, dated 2015).
Read-outs that look alike come from different tables or passages of the source. Positions of bridges follow the written chain, without caps; N, C: chain ends. Non-standard residues stand in square brackets, D forms with d. Residues, ends and D or L forms follow the SMILES beside them. dPhe(4-CN) = N#Cc1ccc(C[C@@H](N)C(=O)O)cc1; dPhe(2-F) = N[C@H](Cc1ccccc1F)C(=O)O; Orn = NCCC[C@H](N)C(=O)O

Tests used:
hMC4-R [1] = target: T1, hMC4-R (Homo sapiens (Human), UniProt P32245); test: Competitive inhibition binding assay using [I125]-NDP-α-MSH, hMC4-R; details: membranes of HEK-293 cells expressing recombinant hMC4-R, read-out: MC4-R Ki
T1 sequence (P32245 whole entry): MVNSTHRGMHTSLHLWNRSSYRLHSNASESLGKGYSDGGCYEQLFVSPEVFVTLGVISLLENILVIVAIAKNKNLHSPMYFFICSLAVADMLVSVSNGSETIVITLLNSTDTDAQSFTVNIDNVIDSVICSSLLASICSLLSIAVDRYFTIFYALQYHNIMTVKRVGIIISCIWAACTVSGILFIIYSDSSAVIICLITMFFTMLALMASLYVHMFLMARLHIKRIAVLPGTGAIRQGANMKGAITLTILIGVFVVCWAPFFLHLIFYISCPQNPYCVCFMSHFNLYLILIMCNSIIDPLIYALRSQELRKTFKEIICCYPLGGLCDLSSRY
Experimental: 7.1 Competitive Inhibition Assay using [I^125]-NDP-α-MSH.
A competitive inhibition binding assay was performed for exemplified peptides according to the invention using membrane homogenates prepared from HEK-293 cells that express recombinant hMC4-R, hMC3-R, or hMC5-R, and from B-16 mouse melanoma cells (containing endogenous MC1-R). In some instances, HEK-293 cells that express recombinant hMC1-R were employed. Assays were performed in 96 well GF/B Millipore multiscreen filtration plates (MAFB NOB10) pre-coated with 0.5% bovine serum albumin (Fraction V). Membrane homogenates were incubated with 0.2 nM (for hMC4-R) 0.4 nM (for MC3-R and MC5-R) or 0.1 nM (for mouse B16 MC1-R or hMC1-R) [I^125]-NDP-α-MSH (Perkin Elmer) and increasing concentrations of test peptides of the present invention in buffer containing 25 mM HEPES buffer (pH 7.5) with 100 mM NaCl, 2 mM CaCl2, 2 mM MgCl2, 0.3 mM 1,10-phenanthroline, and 0.2% bovine serum albumin. After incubation for 60 minutes at 37° C., the assay mixture was filtered and the membranes washed three times with ice-cold buffer. Filters were dried and counted in a gamma counter for bound radioactivity. […] Maximal specific binding (100%) was defined as the difference in radioactivity (cpm) bound to cell membranes in the absence and presence of 1 μM NDP-α-MSH. […] Each assay was conducted in triplicate and the actual mean values are described, with results less than 0% reported as 0%. Ki values for test peptides of the present invention were determined using Graph-Pad Prism® curve-fitting software.

hMC4-R [2] = target: T1, hMC4-R; test: High and low density hMC4-R functional assay (cAMP, HEK293-T-REx-MC4-R cells); assay type: cell-based; details: for Emax: NDP-α-MSH = 100%, read-out: Intrinsic Activity (%)
Experimental: The cells were then dispensed into 96-well plates (BD 353916) in 198 μL (about 5×10^4) cells/well and incubated for 10 minutes at 37° C. The compound to be tested was diluted with DMSO to a final concentration of 1 mM. […] 120 μL of the 1 mM compound stock was pipetted in the second column on the plate. […] All assay samples were run in duplicate (i.e. each sample was in two low dox and two high dox plates, respectively). The plates were gently shaken and incubated for 15 minutes at 37° C.

[3] = 0.1 ng/mL Doxycycline (low density hMC4-R system)
[4] = 10 ng/mL Doxycycline (high density hMC4-R system)

| Structure (SMILES) | Ki (hMC4-R [1]) | Emax (hMC4-R [2]; [3]) | Emax (hMC4-R [2]; [4]) | EC50 (hMC4-R [2]; [4]) | EC50 (hMC4-R [2]; [3]) |
| --- | --- | --- | --- | --- | --- |
| CC(=O)N[C@@H](CCCNC(=N)N)C(=O)N[C@H]1CCCNC(=O)CC[C@@H](C(N)=O)NC(=O)[C@H](Cc2c[nH]c3ccccc23)NC(=O)[C@H](CCCNC(=N)N)NC(=O)[C@@H](Cc2ccccc2C)NC(=O)[C@H](CCC(N)=O)NC1=O [Example 111, Ac-Arg-cyclo(Orn-Gln-D-Phe(2-Me)-Arg-Trp-Glu)-NH2] | 6000 pM | 81% | 104% | – | – |
| CC(=O)N[C@@H](CCCNC(=N)N)C(=O)N[C@H]1CCC(=O)NCCC[C@@H](C(N)=O)NC(=O)[C@H](Cc2c[nH]c3ccccc23)NC(=O)[C@H](CCCNC(=N)N)NC(=O)[C@@H](Cc2ccccc2C(F)(F)F)NC(=O)[C@H](CC(N)=O)NC1=O [Example 116, Ac-Arg-cyclo(Glu-Asn-D-Phe(2-CF3)-Arg-Trp-Orn)-NH2] | 7000 pM | 77% | 104% | 95 pM | – |
| CC(=O)N[C@@H](CCCNC(=N)N)C(=O)N[C@H]1CC(=O)NCCCC[C@@H](C(N)=O)NC(=O)[C@H](Cc2c[nH]c3ccccc23)NC(=O)[C@H](CCCNC(=N)N)NC(=O)[C@@H](Cc2ccc(C#N)cc2)NC(=O)[C@H](CC(N)=O)NC1=O [Example 89, Ac-Arg-cyclo(Asp-Asn-D-Phe(4-CN)-Arg-Trp-Lys)-NH2] (Ac-RDN[dPhe(4-CN)]RWK-NH2; lactam 2-7) | 48000 pM | 6% | 87% | – | – |
| CC(=O)N[C@@H](CCCNC(=N)N)C(=O)N[C@H]1CCC(=O)NCCC[C@@H](C(N)=O)NC(=O)[C@H](Cc2c[nH]c3ccccc23)NC(=O)[C@H](CCCNC(=N)N)NC(=O)[C@@H](Cc2cc(F)c(F)c(F)c2)NC(=O)[C@H](CC(N)=O)NC1=O [Example 95, Ac-Arg-cyclo(Glu-Asn-D-Phe(3,4,5-triF)-Arg-Trp-Orn)-NH2] | 3000 pM | 42% | 100% | 125 pM | 1000 pM |
| CC(=O)N[C@@H](CCCNC(=N)N)C(=O)N[C@H]1CCC(=O)NCCC[C@@H](C(N)=O)NC(=O)[C@H](Cc2c[nH]c3ccccc23)NC(=O)[C@H](CCCNC(=N)N)NC(=O)[C@@H](Cc2cccc(Cl)c2)NC(=O)[C@H](CCCN)NC1=O [Example 101, Ac-Arg-cyclo(Glu-Orn-D-Phe(3-Cl)-Arg-Trp-Orn)-NH2] | 1000 pM | 36% | 93% | 140 pM | 950 pM |
| CC(=O)N[C@@H](CCCNC(=N)N)C(=O)N[C@H]1CCCCNC(=O)C[C@@H](C(N)=O)NC(=O)[C@H](Cc2c[nH]c3ccccc23)NC(=O)[C@H](CCCNC(=N)N)NC(=O)[C@@H](Cc2ccc(C#N)cc2)NC(=O)[C@H](CCC(N)=O)NC1=O [Example 93, Ac-Arg-cyclo(Lys-Gln-D-Phe(4-CN)-Arg-Trp-Asp)-NH2] (Ac-RKQ[dPhe(4-CN)]RWD-NH2; lactam 2-7) | 1000 pM | 44% | 97% | 170 pM | 300 pM |
| CC(=O)N[C@H](CCCNC(=N)N)C(=O)N[C@H]1CCCNC(=O)CC[C@@H](C(N)=O)NC(=O)[C@H](Cc2c[nH]c3ccccc23)NC(=O)[C@H](CCCNC(=N)N)NC(=O)[C@@H](Cc2ccccc2Cl)NC(=O)[C@H](Cc2c[nH]cn2)NC1=O [Example 50, Ac-D-Arg-cyclo(Orn-His-D-Phe(2-Cl)-Arg-Trp-Glu)-NH2] | 1000 pM | 94% | 94% | 85 pM | 210 pM |
| CC(=O)N[C@H](CCCNC(=N)N)C(=O)N[C@H]1CC(=O)NCCCC[C@@H](C(N)=O)NC(=O)[C@H](Cc2c[nH]c3ccccc23)NC(=O)[C@H](CCCNC(=N)N)NC(=O)[C@@H](Cc2ccccc2F)NC(=O)[C@H](CCC(N)=O)NC1=O [Example 82, Ac-D-Arg-cyclo(Asp-Gln-D-Phe(2-F)-Arg-Trp-Lys)-NH2] | 10000 pM | 79% | 95% | 95 pM | 2000 pM |
| CC(=O)N[C@@H](CCCNC(=N)N)C(=O)N[C@H]1CCC(=O)NCCC[C@@H](C(N)=O)NC(=O)[C@H](Cc2c[nH]c3ccccc23)NC(=O)[C@H](CCCNC(=N)N)NC(=O)[C@@H](Cc2ccccc2F)NC(=O)[C@H](CCC(N)=O)NC1=O [Example 59, Ac-Arg-cyclo(Glu-Gln-D-Phe(2-F)-Arg-Trp-Orn)-NH2] | 7000 pM | 90% | 98% | 100 pM | 600 pM |
| CC(=O)N[C@@H](CCCNC(=N)N)C(=O)N[C@H]1CCC(=O)NCCC[C@@H](C(N)=O)NC(=O)[C@H](Cc2c[nH]c3ccccc23)NC(=O)[C@H](CCCNC(=N)N)NC(=O)[C@@H](Cc2ccc(C(C)(C)C)cc2)NC(=O)[C@H](CCN)NC1=O [Example 30, Ac-Arg-cyclo(Glu-Dab-D-Phe(4-tBu)-Arg-Trp-Orn)-NH2] | 4000 pM | 2% | 9% | 25000 pM | – |
| CC(=O)N[C@@H](CCCNC(=N)N)C(=O)N[C@H]1CCC(=O)NCCC[C@@H](C(N)=O)NC(=O)[C@H](Cc2c[nH]c3ccccc23)NC(=O)[C@H](CCCNC(=N)N)NC(=O)[C@@H](Cc2cccc(Cl)c2)NC(=O)[C@H](CO)NC1=O [Example 35, Ac-Arg-cyclo(Glu-Ser-D-Phe(3-Cl)-Arg-Trp-Orn)-NH2] | 10000 pM | 6% | 84% | 1000 pM | – |
| CC(=O)N[C@@H](CCCNC(=N)N)C(=O)N[C@H]1CCC(=O)NCCC[C@@H](C(N)=O)NC(=O)[C@H](Cc2c[nH]c3ccccc23)NC(=O)[C@H](CCCNC(=N)N)NC(=O)[C@@H](Cc2ccc(C#N)cc2)NC(=O)[C@H](C(C)C)NC1=O [Example 42, Ac-Arg-cyclo(Glu-Val-D-Phe(4-CN)-Arg-Trp-Orn)-NH2] | 6000 pM | 9% | 84% | 500 pM | – |
| CC(=O)N[C@@H](CCCNC(=N)N)C(=O)N[C@H]1CCCNC(=O)CC[C@@H](C(N)=O)NC(=O)[C@H](Cc2c[nH]c3ccccc23)NC(=O)[C@H](CCCNC(=N)N)NC(=O)[C@@H](Cc2cc(F)c(F)c(F)c2)NC(=O)[C@H](CC(N)=O)NC1=O [Example 96, Ac-Arg-cyclo(Orn-Asn-D-Phe(3,4,5-triF)-Arg-Trp-Glu)-NH2] | 2000 pM | 24% | 100% | 235 pM | 2000 pM |
| CC(=O)N[C@@H](CCCNC(=N)N)C(=O)N[C@H]1CCC(=O)NCCC[C@@H](C(N)=O)NC(=O)[C@H](Cc2c[nH]c3ccccc23)NC(=O)[C@H](CCCNC(=N)N)NC(=O)[C@@H](Cc2ccc([N+](=O)[O-])cc2)NC(=O)[C@H](CCN)NC1=O [Example 24, Ac-Arg-cyclo(Glu-Dab-D-Phe(4-NO2)-Arg-Trp-Orn)-NH2] | 450 pM | 15% | 99% | 450 pM | 700 pM |
| CC(=O)N[C@@H](CCCNC(=N)N)C(=O)N[C@H]1CCC(=O)NCCC[C@@H](C(N)=O)NC(=O)[C@H](Cc2c[nH]c3ccccc23)NC(=O)[C@H](CCCNC(=N)N)NC(=O)[C@@H](Cc2cccc(Cl)c2)NC(=O)[C@H](CCCNC(N)=O)NC1=O [Example 99, Ac-Arg-cyclo(Glu-Arg-D-Phe(3-Cl)-Arg-Trp-Orn)-NH2] | 500 pM | 32% | 94% | 140 pM | 700 pM |
| CC(=O)N[C@@H](CCCNC(=N)N)C(=O)N[C@H]1CCC(=O)NCCC[C@@H](C(N)=O)NC(=O)[C@H](Cc2c[nH]c3ccccc23)NC(=O)[C@H](CCCNC(=N)N)NC(=O)[C@@H](Cc2ccc(F)cc2)NC(=O)[C@H](CCC(N)=O)NC1=O [Example 92, Ac-Arg-cyclo(Glu-Gln-D-Phe(4-F)-Arg-Trp-Orn)-NH2] | 2000 pM | 81% | 89% | – | 100 pM |
| CC(=O)N[C@@H](CCCNC(=N)N)C(=O)N[C@H]1CCC(=O)NCCC[C@@H](C(N)=O)NC(=O)[C@H](Cc2c[nH]c3ccccc23)NC(=O)[C@H](CCCNC(=N)N)NC(=O)[C@@H](Cc2ccc(C#N)cc2)NC(=O)[C@H](CCN)NC1=O [Example 7, Ac-Arg-cyclo(Glu-Dab-D-Phe(4-CN)-Arg-Trp-Orn)-NH2] | 833 pM | 48% | 100% | 135 pM | 300 pM |
| CC(=O)N[C@@H](CCCNC(=N)N)C(=O)N[C@H]1CCCNC(=O)CC[C@@H](C(N)=O)NC(=O)[C@H](Cc2c[nH]c3ccccc23)NC(=O)[C@H](CCCNC(=N)N)NC(=O)[C@@H](Cc2ccccc2F)NC(=O)[C@@H]2CCCN2C1=O [Example 105, Ac-Arg-cyclo(Orn-Pro-D-Phe(2-F)-Arg-Trp-Glu)-NH2] (Ac-R[Orn]P[dPhe(2-F)]RWE-NH2; lactam 2-7) | 7000 pM | 35% | 94% | 150 pM | 3000 pM |
